#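 Cultured in 96-well plates, cells were exposed to test compound for 48 hours across five concentrations. At the GI50, growth is halved. TGI: concentration producing complete growth inhibition.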
# Legend:
# Test in all cases: NCI-60 cell line screen, 48 h
# [1] = tested on: OVCAR-4 ovarian
# [2] = tested on: SF-295 CNS
# [3] = tested on: A498 renal
# [4] = tested on: MOLT-4 leukemia
# [5] = tested on: OVCAR-8 ovarian
# [6] = tested on: SNB-75 CNS
# [7] = tested on: CAKI-1 renal
# [8] = tested on: HCT-116 colon
# [9] = tested on: UACC-62 melanoma
# [10] = tested on: PC-3 prostate
SMILES,TGI [1] [µM],TGI [2] [µM],TGI [3] [µM],TGI [4] [µM],TGI [5] [µM],TGI [6] [µM],TGI [7] [µM],TGI [8] [µM],TGI [9] [µM],TGI [10] [µM],GI50 [1] [nM],GI50 [2] [µM],GI50 [3] [nM],GI50 [5] [nM],GI50 [6] [nM],GI50 [7] [nM],GI50 [8] [nM],GI50 [9] [nM],GI50 [10] [nM],GI50 [4] [nM]
O=C1c2ccccc2C2(c3ccc(Cl)cc3)N[C@@H]3CCCC[C@@H]3N12 (some centres undefined),> 100,> 100,> 100,> 100,> 100,> 100,> 100,> 100,> 100,> 100,–,–,–,–,–,–,–,–,–,–
CCOC(=O)/C(C1=N[C@H](C(=O)OCC)CS1)=C(\O)c1ccccc1,> 100,> 100,–,> 100,> 100,> 100,> 100,> 100,> 100,–,–,–,–,–,–,–,–,–,–,–
Cn1c(O)c(/C=N/c2ncccn2)c(=O)[nH]c1=O,> 100,> 100,> 100,> 100,> 100,> 100,> 100,> 100,> 100,> 100,–,–,–,–,–,–,–,–,–,–
O=P1(N(CCCl)CCCl)NCCCO1 (centres undefined),> 250,> 246,> 250,> 250,> 238,> 250,> 191,> 250,> 250,> 250,–,–,–,–,–,–,–,–,–,–
CCOC(=O)c1c(SCCN2CCCCC2)n(-c2ccccc2)c(=S)n(-c2ccccc2)c1=O,33,> 100,–,6.7,54.1,37.1,–,4.89,68.9,27.7,–,–,–,–,–,–,–,–,–,–
COc1ccc(OC)c(-c2cn3c(n2)sc2ccccc23)c1,> 100,> 100,–,> 100,> 100,> 100,> 100,> 100,> 100,> 100,–,–,–,–,–,–,–,–,–,–
OCC1c2ccccc2-n2nc(-c3ccccc3)c(O)c21 (centres undefined),> 100,> 100,–,> 100,37.6,> 100,31.7,–,67.7,34.3,–,–,–,–,–,–,–,–,–,–
COc1ccccc1NC(=O)CSC(N)=O,> 100,> 100,> 100,–,> 100,84.3,> 100,36.6,68.3,–,–,–,–,–,–,–,–,–,–,–
COc1ccc(C2C3=CONC3CC3CCCCC32)cc1 (centres undefined),> 100,–,–,> 100,> 100,> 100,> 100,> 100,> 100,> 100,–,–,–,–,–,–,–,–,–,–
C/C(=N\NC(=O)c1ccncc1)c1cccc(C(F)(F)F)c1,> 10,–,–,> 10,> 10,> 10,> 10,–,> 10,–,–,–,–,–,–,–,–,–,–,–
CN1C(=O)C(CCO)(C(C)(C)C)c2ccccc21 (centres undefined),> 100,> 100,–,> 100,> 100,> 100,> 100,> 100,> 100,> 100,–,–,–,–,–,–,–,–,–,–
CCOC(=O)NC(OCc1ccccc1)(C(=O)OC)C(F)(F)F (centres undefined),> 100,> 100,–,> 100,> 100,–,87.1,> 100,> 100,> 100,–,–,–,–,–,–,–,–,–,–
Cc1ccc(Cl)c2c(=O)cc(-c3ccccc3)[nH]c12,> 100,> 100,–,> 100,> 100,87.1,> 100,> 100,> 100,–,–,–,–,–,–,–,–,–,–,–
Oc1ccc(O)c(Sc2nnc(CCCCCCCCc3nnc(Sc4cc(O)ccc4O)o3)o2)c1,> 100,> 100,> 100,> 100,–,> 100,69.7,32.5,> 100,> 100,–,–,–,–,–,–,–,–,–,–
O=c1cnc2cc3ccccc3cc2[nH]1,> 100,> 100,> 100,> 100,> 100,> 100,> 100,> 100,–,> 100,–,–,–,–,–,–,–,–,–,–
COc1ccc(C[C@H]2COC(=O)[C@@H]2Cc2ccccc2)cc1OC,–,> 100,> 100,> 100,> 100,–,–,> 100,–,> 100,–,–,–,–,–,–,–,–,–,–
COc1c(-c2ccc(F)cc2)oc2cc(O)cc(O)c2c1=O,–,83.9,> 100,> 100,69.4,64,48.5,> 100,–,> 100,–,–,–,–,–,–,–,–,–,–
O=C(NCCNCCO)N/N=C/c1ccccc1,> 100,> 100,–,> 100,> 100,> 100,–,> 100,> 100,–,–,–,–,–,–,–,–,–,–,–
Cn1c(=O)[nH]n(-c2ccc3ccccc3c2)c1=O,> 100,> 100,> 100,–,> 100,> 100,> 100,> 100,> 100,> 100,–,–,–,–,–,–,–,–,–,–
COc1ccc(Nc2nc(NNC(=O)Cc3ccccc3)nc(NNC(=O)c3ccncc3)n2)cc1,> 10,> 10,> 10,> 10,> 10,> 10,> 10,> 10,8.65,–,–,–,–,–,–,–,–,–,–,–
COc1ccc(-c2cc(-c3ccc(OC)c(OC)c3)nc(SCCCC(=O)NO)n2)cc1,> 100,3.77,3.06,–,> 100,5.6,2.37,13.7,2.68,> 100,2020,1.74,1390,782,1340,431,960,1140,2070,–
COc1cccc(OC/C(N=Cc2ccncc2)=N/NC(=O)c2ccncc2)c1,> 100,> 100,> 100,> 100,> 100,–,> 100,> 100,> 100,> 100,–,–,–,–,–,–,–,–,–,–
COc1ccc(C(=O)/C=C/c2ccc(OCCCOc3ccc(/C=C/C(=O)c4ccc(OC)c(OC)c4)cc3)cc2)cc1OC,> 100,> 100,–,> 100,> 100,> 100,> 100,> 100,> 100,> 100,–,–,–,–,–,–,–,–,–,–

SMILES,TGI [1] [µM],TGI [2] [µM],TGI [3] [µM],TGI [4] [µM],TGI [5] [µM],TGI [6] [µM],TGI [7] [µM],TGI [8] [µM],TGI [9] [µM],TGI [10] [µM],GI50 [1] [nM],GI50 [2] [µM],GI50 [3] [nM],GI50 [5] [nM],GI50 [6] [nM],GI50 [7] [nM],GI50 [8] [nM],GI50 [9] [nM],GI50 [10] [nM],GI50 [4] [nM]
CN1CCCC(OC(=O)c2cc3cc(CCl)ccc3oc2=O)C1 (centres undefined),48.6,77.9,–,98,> 100,52.8,60.5,48.7,31.6,41.3,–,–,–,–,–,–,–,–,–,–
N#C[C@H]1C(=O)C(c2nc3ccccc3[nH]2)S[C@H]1c1ccccc1 (some centres undefined),> 100,86.2,79,> 100,> 100,–,> 100,> 100,36.7,–,–,–,–,–,–,–,–,–,–,–
CC(C)(C)C(=O)O[C@H]1C=C[C@@H](O)[C@@H]2[C@H]1[C@@H]1C=C[C@H]2C1,60,> 100,50.8,83.8,> 100,> 100,> 100,> 100,> 100,–,–,–,–,–,–,–,–,–,–,–
CC1Cc2c(cc(N)nc2Br)NC1=O (centres undefined),> 100,> 100,–,> 100,> 100,> 100,> 100,> 100,> 100,> 100,–,–,–,–,–,–,–,–,–,–
C/C(=C\COP(=O)(O)OP(=O)(O)O)CC/C=C(\C)CNc1ccccc1,–,> 50,–,> 50,> 50,> 50,> 50,> 50,> 50,> 50,–,–,–,–,–,–,–,–,–,–
Cc1cccc(=O)c([O-])c1.Cc1cccc(=O)c([O-])c1.Cc1cccc(=O)c([O-])c1.Cc1cccc(=O)c([O-])c1.[Th+4],> 100,> 100,81.6,> 27,> 100,> 77.7,86.6,35,19.6,–,–,–,–,–,–,–,–,–,–,–
CCCCCCCCCCC[N+]1(Cc2ccccc2)CC2CCN(Cc3ccccc3)CC2C1 (centres undefined),2.02,2.28,2.88,1.25,1.5,2.45,2.74,1.45,–,1.18,–,–,–,–,–,–,–,–,–,–
Clc1ccc(Cc2nc3ccccc3nc2-c2cccc(Cl)c2)cc1,3.24,32.6,–,6.82,14.2,–,8.51,3.29,3.46,8.18,–,–,–,–,–,–,–,–,–,–
CCn1c(O)c(C(=O)NC(C)c2ccc([N+](=O)[O-])cc2)c(=O)n(CC)c1=S (centres undefined),12.1,3.7,–,5.52,–,5.34,10.1,4.45,5.8,10.2,–,–,–,–,–,–,–,–,–,–
CC(=O)c1cc(S(=O)(=O)c2ccc(O)c(C(C)=O)c2)ccc1O,> 100,> 100,> 100,> 100,> 100,–,> 100,> 100,> 100,> 100,–,–,–,–,–,–,–,–,–,–
Cc1sc2nc3n(sc4nc5sc(C)c(C)c5c(=O)n43)c(=O)c2c1C,> 100,> 100,–,52,> 100,43.4,> 100,> 100,87.6,> 100,–,–,–,–,–,–,–,–,–,–
COC(=O)NC(Nc1ccc(C)cc1)(C(F)(F)F)C(F)(F)F,–,> 100,> 100,> 100,> 100,> 100,> 100,> 100,> 100,> 100,–,–,–,–,–,–,–,–,–,–
S=c1oc(CCCCCCCCc2nn(CNc3ccc(Cl)cc3)c(=S)o2)nn1CNc1ccc(Cl)cc1,> 100,> 100,> 100,> 100,–,> 100,> 100,> 100,> 100,> 100,–,–,–,–,–,–,–,–,–,–
CCCCN(CCCC)C1=Nc2ccccc2-n2c(nnc2C(=O)OCC)C1,> 100,> 100,–,84.1,> 100,> 100,> 100,> 100,> 100,51.6,–,–,–,–,–,–,–,–,–,–
Cc1c(Cl)c(=O)oc2cc(OCC(O)COC(C)C)ccc12 (centres undefined),> 100,> 100,–,66.9,> 100,–,–,> 100,> 100,> 100,–,–,–,–,–,–,–,–,–,–
Cc1cn([C@@H]2C[C@](C)(CO)N(C)O2)c(=O)[nH]c1=O,> 100,> 100,> 100,–,> 100,> 100,> 100,> 100,> 100,> 100,–,–,–,–,–,–,–,–,–,–
Cc1cc(C)c(C#N)c(SC(=S)NC(=O)c2ccccc2)n1,> 100,–,> 100,> 100,–,> 100,> 100,> 100,> 100,> 100,–,–,–,–,–,–,–,–,–,–
Cn1cnc(/C=C/C#N)c1,> 100,> 100,> 100,> 100,> 100,> 100,> 100,–,> 100,> 100,–,–,–,–,–,–,–,–,–,–
CN(c1ccc(Cl)cc1)S(=O)(=O)c1ccccc1,> 100,> 100,–,> 100,> 100,> 100,> 100,> 100,> 100,> 100,–,–,–,–,–,–,–,–,–,–
O=C1/C(=C/c2cccs2)N=C(c2ccccc2)N1c1nc2ccccc2s1,–,> 100,> 100,> 100,> 100,–,> 100,> 100,–,> 100,–,–,–,–,–,–,–,–,–,–
C=C(C)[C@@H]1CC[C@]2(C(=O)OC3OC(COC4OC(CO)C(OC5OC(C)C(O)C(O)C5O)C(O)C4O)C(O)C(O)C3O)CC[C@]3(C)[C@H](CC[C@@H]4[C@@]5(C)CC[C@H](O)[C@@](C)(CO)[C@@H]5CC[C@]43C)[C@@H]12 (some centres undefined),> 10,> 8.59,> 10,–,> 10,> 10,> 9.66,> 6.75,4.76,> 8.45,–,–,–,–,–,–,–,–,–,–
Cc1ccc(C(=O)NN=C(/N=N/c2cccc(C)c2)c2ccc(N(C)C)cc2)cc1,> 100,> 100,–,> 100,> 100,–,> 100,> 100,> 100,> 100,–,–,–,–,–,–,–,–,–,–
C=C1C(=O)O[C@H]2[C@H]1CC/C(COC(=O)/C=C/C(=O)OC/C1=C/CC[C@@]3(C)O[C@H]3[C@H]3OC(=O)C(=C)[C@@H]3CC1)=C\CC[C@@]1(C)O[C@@H]21,–,> 100,> 100,1.4,3.05,66.9,3.43,0.756,2.68,> 100,–,6.77,> 100000,1530,3470,1080,253,1210,3020,307
